Source: ChEMBL document CHEMBL5335866, “Structure-Based Optimization of Selective and Brain Penetrant CK1δ Inhibitors for the Treatment of Circadian Disruptions” (ACS Med Chem Lett, 2024)
Converted amounts (≈) assume the structure as drawn.

Experiments:
[1] = target: Mitogen-activated protein kinase kinase kinase 20 (Homo sapiens) (UniProt Q9NYL2); assay: Inhibition of ZAK (unknown origin) at 1 uM by radiometric assay relative to control
[2] = target: T1, Dual specificity mitogen-activated protein kinase kinase 3 (Homo sapiens) (UniProt P46734); assay: Inhibition of MKK3 (unknown origin) at 1 uM by radiometric assay relative to control
T1 sequence (whole entry): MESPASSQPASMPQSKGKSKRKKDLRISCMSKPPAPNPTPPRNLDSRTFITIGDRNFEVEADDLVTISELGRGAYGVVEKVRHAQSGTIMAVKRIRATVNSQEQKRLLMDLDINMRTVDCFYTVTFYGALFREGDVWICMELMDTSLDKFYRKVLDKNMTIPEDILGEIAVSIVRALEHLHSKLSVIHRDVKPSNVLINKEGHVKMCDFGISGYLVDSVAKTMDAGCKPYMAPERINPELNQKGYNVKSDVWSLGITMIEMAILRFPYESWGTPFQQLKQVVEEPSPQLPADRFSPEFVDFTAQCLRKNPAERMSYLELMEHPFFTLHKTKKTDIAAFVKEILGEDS

[3] = target: Mitogen-activated protein kinase 14 (Homo sapiens, UniProt Q16539); assay: Inhibition of p38 alpha (unknown origin)
[4] = target: Receptor-interacting serine/threonine-protein kinase 2 (Homo sapiens) (UniProt O43353); assay: Inhibition of RIPK2 (unknown origin) at 1 uM by radiometric assay relative to control
[5] = target: Epithelial discoidin domain-containing receptor 1 (Homo sapiens) (UniProt Q08345); assay: Inhibition of DDR1 (unknown origin) at 1 uM by radiometric assay relative to control
[6] = target: T2, Serine/threonine-protein kinase NLK (Homo sapiens) (UniProt Q9UBE8); assay: Inhibition of NLK (unknown origin) at 1 uM by radiometric assay relative to control
T2 sequence (whole entry): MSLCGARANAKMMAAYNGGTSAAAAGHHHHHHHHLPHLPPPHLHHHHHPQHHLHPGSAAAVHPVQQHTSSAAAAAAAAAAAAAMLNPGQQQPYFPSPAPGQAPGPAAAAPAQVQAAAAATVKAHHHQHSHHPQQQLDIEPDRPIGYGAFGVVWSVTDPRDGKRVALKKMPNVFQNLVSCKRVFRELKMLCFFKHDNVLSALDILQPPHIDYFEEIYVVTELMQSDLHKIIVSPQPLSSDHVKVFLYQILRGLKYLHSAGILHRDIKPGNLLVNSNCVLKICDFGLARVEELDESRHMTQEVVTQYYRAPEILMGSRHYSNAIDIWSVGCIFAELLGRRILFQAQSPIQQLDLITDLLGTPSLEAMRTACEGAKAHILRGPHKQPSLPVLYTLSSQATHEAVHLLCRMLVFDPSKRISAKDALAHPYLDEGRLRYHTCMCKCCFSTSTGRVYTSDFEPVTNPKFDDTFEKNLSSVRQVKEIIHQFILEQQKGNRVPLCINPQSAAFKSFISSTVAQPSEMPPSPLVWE

[7] = target: Citron Rho-interacting kinase (Homo sapiens) (UniProt O14578); assay: Inhibition of CRIK (unknown origin) at 1 uM by radiometric assay relative to control
[8] = target: T3, TGF-beta receptor type-1 (Homo sapiens) (UniProt P36897); assay: Inhibition of TGFBR1 (unknown origin) at 1 uM by radiometric assay relative to control
T3 sequence (whole entry): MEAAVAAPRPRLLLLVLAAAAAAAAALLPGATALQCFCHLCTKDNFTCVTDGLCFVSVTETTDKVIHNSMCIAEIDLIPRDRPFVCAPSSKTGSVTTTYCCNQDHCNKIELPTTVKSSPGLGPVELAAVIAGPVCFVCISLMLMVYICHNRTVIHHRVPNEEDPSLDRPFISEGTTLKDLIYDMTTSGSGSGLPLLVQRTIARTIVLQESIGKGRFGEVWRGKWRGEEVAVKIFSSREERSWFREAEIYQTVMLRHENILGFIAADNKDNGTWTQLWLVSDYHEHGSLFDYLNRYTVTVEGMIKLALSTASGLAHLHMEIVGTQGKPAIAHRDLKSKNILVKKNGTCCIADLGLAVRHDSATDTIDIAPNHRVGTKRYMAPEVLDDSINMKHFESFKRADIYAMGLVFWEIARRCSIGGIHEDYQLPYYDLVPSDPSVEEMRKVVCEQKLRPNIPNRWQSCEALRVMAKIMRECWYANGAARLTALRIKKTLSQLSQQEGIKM

[9] = target: TRAF2 and NCK-interacting protein kinase (Homo sapiens, UniProt Q9UKE5); assay: Inhibition of TNIK (unknown origin) at 1 uM by radiometric assay relative to control
[10] = target: T4, Casein kinase I isoform delta (Homo sapiens, UniProt P48730); assay: Displacement of kinase tracer 8 from NanoLuc-tagged CK1 delta (unknown origin) transfected in CHO cells by BRET assay; assay type: cell-based
[11] = AUC (infinity) in Sprague-Dawley rat at 5 mg/kg, po measured for 24 hrs by LC-MS/MS analysis; assay type: ADME, organism-based; design: time 24 hrs, dose 5 mg/kg, route po; details: in vivo
[12] = Intrinsic clearance in rat liver microsomes at 1 uM preincubated for 5 mins followed by NADPH addition measured for 60 mins by LC-MS/MS analysis; assay type: ADME, Microsome; details: time 65 min, read-out: CLH
[13] = Half life in Sprague-Dawley rat at 5 mg/kg, po measured for 24 hrs by LC-MS/MS analysis; assay type: ADME, organism-based; details: in vivo
[14] = Cmax in Sprague-Dawley rat at 5 mg/kg, po measured for 24 hrs by LC-MS/MS analysis; assay type: ADME, organism-based; design: dose 5 mg/kg, time 24 hrs, route po; details: in vivo
[15] = Solubility of compound at pH 2 measured for 2 to 5 days by HPLC analysis; assay type: physicochemical; details: buffer, time 2-5 day
[16] = Solubility of compound at pH 7 measured for 2 to 5 days by HPLC analysis; assay type: physicochemical; details: buffer, time 2-5 day
[17] = Intrinsic clearance in human liver microsomes at 1 uM preincubated for 5 mins followed by NADPH addition measured for 60 mins by LC-MS/MS analysis; assay type: ADME, Microsome; details: time 65 min, read-out: CLH
[18] = target: Mitogen-activated protein kinase 11 (Homo sapiens, UniProt Q15759); assay: Inhibition of p38 beta (unknown origin)
[19] = Apparent permeability across apical to basal side in MDCK cells expressing MDR1 at 5 uM incubated for 60 mins by LC/MS/MS analysis; assay type: ADME, cell-based, Canis lupus familiaris, MDCK1; details: dog
[20] = Clearance in Sprague-Dawley rat at 1 mg/kg, iv measured for 24 hrs by LC-MS/MS analysis; assay type: ADME, organism-based; details: in vivo
[21] = Oral bioavailability in Sprague-Dawley rat at 5 mg/kg measured for 24 hrs by LC-MS/MS analysis; assay type: ADME, organism-based; details: in vivo
[22] = Volume of distribution at steady state in Sprague-Dawley rat at 1 mg/kg, iv measured for 24 hrs by LC-MS/MS analysis; assay type: ADME, organism-based; details: in vivo, read-out: Vdss
[23] = target: T4, Casein kinase I isoform delta; assay: Inhibition of N-terminal GST-tagged recombinant human CK1 delta expressed in Escherichia coli BL21 cells using PLSRTL-pS-VA-pS-LPGL as substrate measured after 60 mins in presence of ATP by ADP-Glo assay
MDR1 = assay: Efflux ratio of apparent permeability across basal to apical side over apical to basal side in MDCK cells expressing MDR1 at 5 uM incubated for 60 mins by LC/MS/MS analysis; assay type: ADME, cell-based, Canis lupus familiaris, MDCK1; details: dog

Chain of Citron Rho-interacting kinase (Homo sapiens) (O14578 whole entry): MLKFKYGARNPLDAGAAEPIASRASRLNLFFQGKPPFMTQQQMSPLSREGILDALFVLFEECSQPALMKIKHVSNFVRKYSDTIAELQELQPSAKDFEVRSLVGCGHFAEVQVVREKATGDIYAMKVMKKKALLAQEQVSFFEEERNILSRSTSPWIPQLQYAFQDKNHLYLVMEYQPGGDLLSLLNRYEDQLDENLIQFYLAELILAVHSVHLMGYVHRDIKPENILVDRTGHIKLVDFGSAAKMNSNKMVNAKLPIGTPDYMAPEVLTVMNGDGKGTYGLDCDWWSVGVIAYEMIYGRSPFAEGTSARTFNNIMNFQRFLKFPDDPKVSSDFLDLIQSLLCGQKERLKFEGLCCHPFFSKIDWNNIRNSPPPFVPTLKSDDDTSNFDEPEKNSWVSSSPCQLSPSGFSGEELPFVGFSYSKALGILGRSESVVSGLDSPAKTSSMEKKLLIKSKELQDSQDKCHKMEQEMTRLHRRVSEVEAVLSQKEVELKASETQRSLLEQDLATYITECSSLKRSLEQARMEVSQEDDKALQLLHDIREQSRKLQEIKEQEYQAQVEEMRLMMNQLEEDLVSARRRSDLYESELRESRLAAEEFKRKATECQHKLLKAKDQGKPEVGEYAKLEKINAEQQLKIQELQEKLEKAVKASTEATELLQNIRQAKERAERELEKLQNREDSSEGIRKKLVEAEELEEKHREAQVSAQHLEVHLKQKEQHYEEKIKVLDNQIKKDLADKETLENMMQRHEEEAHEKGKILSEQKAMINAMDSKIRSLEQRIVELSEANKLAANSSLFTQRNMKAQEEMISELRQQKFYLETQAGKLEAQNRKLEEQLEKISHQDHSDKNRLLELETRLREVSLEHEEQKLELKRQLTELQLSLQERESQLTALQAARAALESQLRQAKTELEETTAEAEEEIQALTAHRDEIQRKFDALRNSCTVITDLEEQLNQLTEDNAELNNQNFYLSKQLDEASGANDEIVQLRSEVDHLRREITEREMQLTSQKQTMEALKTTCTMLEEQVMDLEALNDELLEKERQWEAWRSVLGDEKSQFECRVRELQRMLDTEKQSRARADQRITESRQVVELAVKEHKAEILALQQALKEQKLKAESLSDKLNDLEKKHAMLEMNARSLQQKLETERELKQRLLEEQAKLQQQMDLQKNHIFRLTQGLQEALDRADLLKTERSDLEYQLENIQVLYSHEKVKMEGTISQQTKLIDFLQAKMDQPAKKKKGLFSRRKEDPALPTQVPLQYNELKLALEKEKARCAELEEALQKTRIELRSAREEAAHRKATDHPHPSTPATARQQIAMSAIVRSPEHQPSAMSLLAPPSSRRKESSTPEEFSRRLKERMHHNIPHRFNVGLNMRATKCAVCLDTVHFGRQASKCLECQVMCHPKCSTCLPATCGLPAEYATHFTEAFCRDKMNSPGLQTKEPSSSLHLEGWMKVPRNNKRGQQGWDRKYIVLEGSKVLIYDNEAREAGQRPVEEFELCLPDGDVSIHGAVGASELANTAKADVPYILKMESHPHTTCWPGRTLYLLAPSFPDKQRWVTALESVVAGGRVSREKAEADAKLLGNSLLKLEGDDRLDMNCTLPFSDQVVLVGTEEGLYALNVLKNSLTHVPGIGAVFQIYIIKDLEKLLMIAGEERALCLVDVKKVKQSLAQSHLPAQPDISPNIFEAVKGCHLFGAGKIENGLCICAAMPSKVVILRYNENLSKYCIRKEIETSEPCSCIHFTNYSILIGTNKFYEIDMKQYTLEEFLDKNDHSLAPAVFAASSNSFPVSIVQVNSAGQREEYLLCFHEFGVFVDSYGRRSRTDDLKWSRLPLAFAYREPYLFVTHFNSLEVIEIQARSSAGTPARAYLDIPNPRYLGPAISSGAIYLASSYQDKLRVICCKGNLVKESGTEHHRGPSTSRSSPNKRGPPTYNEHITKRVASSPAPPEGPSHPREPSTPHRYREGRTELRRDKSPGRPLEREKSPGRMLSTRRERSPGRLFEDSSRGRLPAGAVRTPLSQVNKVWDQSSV
Chain of Mitogen-activated protein kinase 11 (Q15759 whole entry): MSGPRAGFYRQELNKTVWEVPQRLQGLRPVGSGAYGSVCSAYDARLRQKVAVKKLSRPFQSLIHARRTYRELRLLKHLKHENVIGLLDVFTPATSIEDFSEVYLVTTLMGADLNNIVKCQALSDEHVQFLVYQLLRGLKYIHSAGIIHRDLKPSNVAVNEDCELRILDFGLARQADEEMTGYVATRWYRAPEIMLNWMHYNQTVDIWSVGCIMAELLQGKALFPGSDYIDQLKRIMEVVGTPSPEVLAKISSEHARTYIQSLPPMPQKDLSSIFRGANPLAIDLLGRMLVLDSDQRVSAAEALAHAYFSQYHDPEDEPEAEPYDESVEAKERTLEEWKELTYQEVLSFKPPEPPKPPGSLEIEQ
Chain of Mitogen-activated protein kinase kinase kinase 20 (Homo sapiens) (Q9NYL2 2-800 limits assumed): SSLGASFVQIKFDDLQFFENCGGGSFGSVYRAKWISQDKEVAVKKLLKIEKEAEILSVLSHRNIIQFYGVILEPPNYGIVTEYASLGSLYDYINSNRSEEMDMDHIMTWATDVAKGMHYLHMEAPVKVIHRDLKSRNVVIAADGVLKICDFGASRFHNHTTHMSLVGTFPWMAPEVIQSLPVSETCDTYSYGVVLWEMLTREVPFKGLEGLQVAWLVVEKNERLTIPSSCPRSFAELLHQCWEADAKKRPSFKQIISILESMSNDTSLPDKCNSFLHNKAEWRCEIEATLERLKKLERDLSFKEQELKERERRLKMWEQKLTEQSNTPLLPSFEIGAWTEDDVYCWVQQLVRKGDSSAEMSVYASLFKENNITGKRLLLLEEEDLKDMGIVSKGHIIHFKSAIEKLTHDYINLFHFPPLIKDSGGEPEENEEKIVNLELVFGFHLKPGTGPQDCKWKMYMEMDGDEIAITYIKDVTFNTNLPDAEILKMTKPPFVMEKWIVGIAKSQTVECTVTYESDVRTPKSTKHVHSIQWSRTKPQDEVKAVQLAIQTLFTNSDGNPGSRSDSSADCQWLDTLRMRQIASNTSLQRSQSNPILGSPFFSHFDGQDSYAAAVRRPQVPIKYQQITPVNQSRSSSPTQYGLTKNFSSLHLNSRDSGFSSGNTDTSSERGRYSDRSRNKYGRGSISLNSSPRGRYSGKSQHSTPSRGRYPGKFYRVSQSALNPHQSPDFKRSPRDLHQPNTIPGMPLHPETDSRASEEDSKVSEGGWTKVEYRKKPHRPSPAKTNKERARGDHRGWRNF
Chain of TRAF2 and NCK-interacting protein kinase (Q9UKE5 whole entry, looked up, canonical isoform): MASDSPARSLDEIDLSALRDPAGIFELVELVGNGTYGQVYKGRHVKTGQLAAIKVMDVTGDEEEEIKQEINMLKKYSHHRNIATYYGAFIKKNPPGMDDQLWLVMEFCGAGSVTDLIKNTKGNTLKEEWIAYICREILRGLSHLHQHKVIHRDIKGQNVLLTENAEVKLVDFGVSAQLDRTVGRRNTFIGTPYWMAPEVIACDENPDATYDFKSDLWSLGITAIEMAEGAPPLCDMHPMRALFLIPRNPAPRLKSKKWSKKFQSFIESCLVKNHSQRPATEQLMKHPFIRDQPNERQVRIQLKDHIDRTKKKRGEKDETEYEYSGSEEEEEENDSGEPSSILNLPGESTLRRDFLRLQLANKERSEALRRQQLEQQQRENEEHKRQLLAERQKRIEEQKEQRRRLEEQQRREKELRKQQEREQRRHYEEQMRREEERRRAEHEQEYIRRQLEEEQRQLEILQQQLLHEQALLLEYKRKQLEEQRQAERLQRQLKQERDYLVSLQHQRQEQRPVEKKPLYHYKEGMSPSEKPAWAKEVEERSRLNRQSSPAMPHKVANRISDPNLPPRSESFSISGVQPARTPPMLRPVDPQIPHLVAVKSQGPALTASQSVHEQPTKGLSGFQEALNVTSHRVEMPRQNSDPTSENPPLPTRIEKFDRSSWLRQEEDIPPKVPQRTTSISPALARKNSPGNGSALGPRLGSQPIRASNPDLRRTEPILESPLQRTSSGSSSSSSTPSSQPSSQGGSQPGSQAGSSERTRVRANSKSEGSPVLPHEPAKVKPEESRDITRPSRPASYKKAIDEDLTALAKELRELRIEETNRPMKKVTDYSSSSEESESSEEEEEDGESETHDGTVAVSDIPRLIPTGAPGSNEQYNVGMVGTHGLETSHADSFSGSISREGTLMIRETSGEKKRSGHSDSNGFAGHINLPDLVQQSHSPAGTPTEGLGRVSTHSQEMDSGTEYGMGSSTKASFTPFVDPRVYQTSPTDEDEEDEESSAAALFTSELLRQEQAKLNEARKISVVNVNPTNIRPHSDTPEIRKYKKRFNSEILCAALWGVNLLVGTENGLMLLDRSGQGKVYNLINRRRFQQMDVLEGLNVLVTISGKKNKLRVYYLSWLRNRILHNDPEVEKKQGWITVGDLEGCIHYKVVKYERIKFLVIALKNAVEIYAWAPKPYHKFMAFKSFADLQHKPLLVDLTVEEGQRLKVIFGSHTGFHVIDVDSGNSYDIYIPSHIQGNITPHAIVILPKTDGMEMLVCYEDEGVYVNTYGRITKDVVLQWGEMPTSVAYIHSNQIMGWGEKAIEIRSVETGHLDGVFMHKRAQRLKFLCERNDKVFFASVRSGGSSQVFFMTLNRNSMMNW
Chain of Mitogen-activated protein kinase 14 (Q16539 whole entry): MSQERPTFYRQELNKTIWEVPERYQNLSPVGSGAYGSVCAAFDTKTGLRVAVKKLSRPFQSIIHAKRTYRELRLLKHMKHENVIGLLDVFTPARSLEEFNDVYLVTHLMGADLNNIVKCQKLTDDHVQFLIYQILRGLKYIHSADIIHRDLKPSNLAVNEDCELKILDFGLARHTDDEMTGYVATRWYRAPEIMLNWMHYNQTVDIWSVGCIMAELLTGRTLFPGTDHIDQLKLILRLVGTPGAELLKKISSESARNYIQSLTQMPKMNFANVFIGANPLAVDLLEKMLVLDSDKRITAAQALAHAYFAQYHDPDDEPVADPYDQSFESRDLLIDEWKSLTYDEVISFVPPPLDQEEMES

Structure (SMILES) | inhibition [1] [%] | inhibition [2] [%] | IC50 [3] [nM] | inhibition [4] [%] | inhibition [5] [%] | inhibition [6] [%] | inhibition [7] [%] | inhibition [8] [%] | inhibition [9] [%] | IC50 [10] [nM] | microsomal CLint at 1 µM [12] [µL/min/mg] | microsomal CLint at 1 µM [17] [µL/min/mg] | further results
Cn1cc(-c2cc(N)nc3[nH]ccc23)c(-c2ccc(F)cn2)n1 | 18 | 29 | > 10000 | 3 | 8 | 0 | 0 | 8 | 39 | – | – | – | –
Fc1ccc(-c2nn3c(c2-c2ccnc(NC4CCOCC4)n2)COCC3)cc1 | – | – | – | – | – | – | – | – | – | 45 | – | – | –
Fc1ccc(-c2nn3c(c2-c2ccnc4[nH]ncc24)CCC(F)(F)C3)nc1 | – | – | – | – | – | – | – | – | – | 300 | – | – | –
Fc1ccc(-c2nn3c(c2-c2ccnc4[nH]ccc24)COCC3)nc1 | 9 | 44 | 4000 | 10 | 6 | 0 | 5 | 59 | 46 | – | – | – | –
Cc1cnc2[nH]ccc2c1-c1cn(C)nc1-c1ccc(F)cn1 | 30 | 19 | 3000 | 0 | 21 | 0 | 14 | 8 | 54 | – | – | – | –
Cn1cc(-c2c(C#N)cnc3[nH]ccc23)c(-c2ccc(F)cn2)n1 | 40 | 11 | 6200 | 0 | 20 | 17 | 9 | 17 | 88 | – | – | – | –

Further lines, with some results ahead:

inhibition [1] [%] | inhibition [2] [%] | IC50 [3] [nM] | inhibition [4] [%] | inhibition [5] [%] | inhibition [6] [%] | inhibition [7] [%] | inhibition [8] [%] | inhibition [9] [%] | IC50 [10] [nM] | microsomal CLint at 1 µM [12] [µL/min/mg] | microsomal CLint at 1 µM [17] [µL/min/mg] | Structure (SMILES) | further results
100 | 74 | 930 | 81 | 89 | 74 | 80 | 98 | 60 | – | 53.5 | 7.7 | Cn1cc(-c2ccnc3[nH]ccc23)c(-c2ccc(F)cn2)n1 | AUC(0-inf) [11]: 755 ng·h/mL; half-life [13]: 78 min; Cmax [14]: 1600 nM; solubility [15]: > 400 µM; solubility [16]: > 400 µM; IC50 [18]: > 1000 nM; Papp A→B at 1 h, 5 µM [19]: 19.6 ×10⁻⁶ cm/s; clearance [20]: 35 mL/min/kg; bioavailability [21]: 32%; Vd [22]: 0.6 L/kg
87 | 75 | 200 | 63 | 68 | 83 | 54 | 69 | 85 | 250 | – | – | Cn1cc(-c2ccnc3[nH]c(C(F)(F)F)cc23)c(-c2ccc(F)cn2)n1 | –
– | – | 140 | – | – | – | – | – | – | – | 170 | 45 | Cn1cc(-c2ccnc3[nH]ccc23)c(-c2ccc(F)cc2)n1 | IC50 [23]: 2.2 nM; solubility [15]: > 400 µM; solubility [16]: < 4 µM; efflux ratio at 1 h, 5 µM (MDR1): 1.02; IC50 [18]: 250 nM; Papp A→B at 1 h, 5 µM [19]: 25.9 ×10⁻⁶ cm/s
20 | 40 | 2100 | 39 | 25 | 16 | 15 | 49 | 84 | – | 42.9 | 15.1 | CC1(C)Cn2nc(-c3ccc(F)cn3)c(-c3ccnc4[nH]ccc34)c2CO1 | –
– | – | 250 | – | – | – | – | – | – | 36 | 42.2 | 9.4 | Cn1cc(-c2ccnc3[nH]ncc23)c(-c2ccc(F)cc2)n1 | AUC(0-inf) [11]: 2580 ng·h/mL; IC50 [23]: 1.4 nM; half-life [13]: 120 min; Cmax [14]: 2400 nM; solubility [15]: 112 µM (≈ 32.9 µg/mL); solubility [16]: 8.7 µM (≈ 2.55 µg/mL); efflux ratio at 1 h, 5 µM (MDR1): 3; IC50 [18]: 780 nM; Papp A→B at 1 h, 5 µM [19]: 27.3 ×10⁻⁶ cm/s; clearance [20]: 23 mL/min/kg; bioavailability [21]: 70%; Vd [22]: 1.6 L/kg
